In this test the target is Helios (IKZF2) (Homo sapiens, UniProt Q96SW2+Q9UKS7). The test can be described thus: Screening of Helios protein degraders using Nano-Glo HiBiT cell line (HiBiT-IKZF2). The test is classed as cell-based. Particulars: for remaining activity at 1 µM: compound 1 μM, read-out: HiBiT-IKZF2 Residual amount of Helios (%) 1 μM; for remaining activity at 1 µM / remaining activity at 10 µM: 6 hours, HiBiT-Helios knock-in Jurkat cells; for remaining activity at 10 µM: compound 10 μM, read-out: HiBiT-IKZF2 Residual amount of Helios (%) 10 μM. As to the method: To observe intracellular degradation of Helios, the Nano-Glo HiBiT detection system (Promega) was employed. […] The cells expressing Helios fused with HiBiT were validated using the Nano-Glo HiBiT detection system (Promega) according to a predetermined protocol, isolated as single cells, and cultured in complete medium to establish a monoclonal cell line.
After 6 hours, the Nano-Glo HiBiT detection reagent was added to each well in an equal volume to the cell culture medium and incubated at room temperature for 10 minutes. Following incubation, the HiBiT luminescence signal was measured using a microplate reader (Perkin Elmer).
For orientation: HiBiT is a short tag that completes a luciferase, so light tracks the accessible tagged protein.

Each structure is given as a SMILES string.

Helios (IKZF2), sequence (Q9UKS7 whole entry, the tested form may be a part): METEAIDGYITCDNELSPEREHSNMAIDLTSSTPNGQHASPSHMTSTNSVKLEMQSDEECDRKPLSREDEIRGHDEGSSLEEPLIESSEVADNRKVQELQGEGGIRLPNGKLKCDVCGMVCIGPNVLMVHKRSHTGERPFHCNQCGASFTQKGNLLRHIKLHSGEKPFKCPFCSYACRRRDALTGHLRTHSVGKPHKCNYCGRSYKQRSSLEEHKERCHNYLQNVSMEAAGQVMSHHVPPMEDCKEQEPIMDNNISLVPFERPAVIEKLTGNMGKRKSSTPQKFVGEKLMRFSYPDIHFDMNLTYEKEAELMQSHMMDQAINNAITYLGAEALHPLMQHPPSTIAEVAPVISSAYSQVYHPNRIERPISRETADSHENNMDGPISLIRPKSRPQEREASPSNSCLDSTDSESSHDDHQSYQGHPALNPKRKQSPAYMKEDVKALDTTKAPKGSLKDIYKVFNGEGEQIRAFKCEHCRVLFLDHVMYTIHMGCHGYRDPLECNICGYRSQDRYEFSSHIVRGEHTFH
Helios (IKZF2), sequence (Q96SW2 whole entry, the tested form may be a part): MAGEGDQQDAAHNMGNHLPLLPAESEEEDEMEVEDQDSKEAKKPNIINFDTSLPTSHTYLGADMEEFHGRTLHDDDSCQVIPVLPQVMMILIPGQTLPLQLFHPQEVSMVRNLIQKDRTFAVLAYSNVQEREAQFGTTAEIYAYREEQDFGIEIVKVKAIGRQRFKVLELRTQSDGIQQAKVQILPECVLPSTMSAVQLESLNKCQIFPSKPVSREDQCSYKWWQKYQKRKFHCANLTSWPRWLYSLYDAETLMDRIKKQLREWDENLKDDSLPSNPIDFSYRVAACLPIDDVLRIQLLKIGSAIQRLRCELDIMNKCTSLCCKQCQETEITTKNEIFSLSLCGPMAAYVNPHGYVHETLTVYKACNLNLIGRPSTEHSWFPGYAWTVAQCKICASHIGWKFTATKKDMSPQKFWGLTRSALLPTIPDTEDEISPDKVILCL
Helios (IKZF2), sequence (Q16531 whole entry partner, the tested form may be a part): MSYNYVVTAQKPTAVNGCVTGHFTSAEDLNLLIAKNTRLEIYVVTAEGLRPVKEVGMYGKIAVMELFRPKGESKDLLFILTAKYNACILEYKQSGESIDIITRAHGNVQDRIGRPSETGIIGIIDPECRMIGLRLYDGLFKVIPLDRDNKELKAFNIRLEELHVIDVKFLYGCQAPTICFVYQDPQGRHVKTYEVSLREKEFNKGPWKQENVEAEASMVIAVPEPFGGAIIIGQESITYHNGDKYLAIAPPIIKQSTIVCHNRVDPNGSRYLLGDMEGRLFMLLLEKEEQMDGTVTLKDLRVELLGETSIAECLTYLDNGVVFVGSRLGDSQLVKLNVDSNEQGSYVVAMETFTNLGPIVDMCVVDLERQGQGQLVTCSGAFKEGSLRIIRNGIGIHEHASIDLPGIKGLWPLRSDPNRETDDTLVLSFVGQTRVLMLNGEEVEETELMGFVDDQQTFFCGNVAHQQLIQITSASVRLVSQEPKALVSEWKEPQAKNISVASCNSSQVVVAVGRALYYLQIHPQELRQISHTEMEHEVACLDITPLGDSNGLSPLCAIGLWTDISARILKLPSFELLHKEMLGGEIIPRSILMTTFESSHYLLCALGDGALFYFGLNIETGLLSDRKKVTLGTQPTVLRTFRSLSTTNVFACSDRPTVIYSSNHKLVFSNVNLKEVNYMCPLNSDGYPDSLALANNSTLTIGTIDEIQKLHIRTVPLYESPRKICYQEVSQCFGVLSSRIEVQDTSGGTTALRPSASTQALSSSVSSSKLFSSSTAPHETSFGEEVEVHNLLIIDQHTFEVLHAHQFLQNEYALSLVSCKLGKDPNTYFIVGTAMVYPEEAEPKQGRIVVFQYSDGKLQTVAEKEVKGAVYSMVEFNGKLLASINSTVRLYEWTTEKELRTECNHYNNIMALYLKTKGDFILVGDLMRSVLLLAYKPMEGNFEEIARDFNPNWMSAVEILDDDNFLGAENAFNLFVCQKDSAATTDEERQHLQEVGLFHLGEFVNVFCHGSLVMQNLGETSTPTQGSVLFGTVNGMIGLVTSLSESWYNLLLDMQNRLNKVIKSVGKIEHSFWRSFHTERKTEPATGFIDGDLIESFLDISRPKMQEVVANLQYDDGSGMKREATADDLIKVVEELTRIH

For `Nc1ccc2cc(C(=O)N3CCC(c4ccc5c(c4)CN(C4CCC(=O)NC4=O)C5=O)CC3)[nH]c2c1` (stereo not shown) [Compound 32, 3-(5-(1-(6-amino-1H-indole-2-carbonyl)piperidin-4-yl)-1-oxoinsoindolin-2-yl)piperidine-2,6-dione], the remaining activity at 1 µM stood at 62.1% and the remaining activity at 10 µM was 57.3%.

Take `Cc1c(C(=O)N2CCC(C#Cc3ccc4c(c3)CN(C3CCC(=O)NC3=O)C4=O)CC2)[nH]c2cc(Cl)ccc12` (stereo not shown) [Compound 43, 3-(5-((1-(6-chloro-3-methyl-1H-indole-2-carbonyl)piperidin-4-yl)ethynyl)-1-oxoinsoindolin-2-yl)piperidine-2,6-dione]: the remaining activity at 1 µM was determined as 22.7% and the remaining activity at 10 µM turned out to be 15.7%.

`Cc1c(C(=O)N2CCC(c3ccc4c(c3)CN(C3CCC(=O)NC3=O)C4=O)CC2)[nH]c2ccccc12` (stereo not shown) [Compound 21, 3-(5-(1-(3-methyl-1H-indole-2-carbonyl)piperidin-4-yl)-1-oxoinsoindolin-2-yl)piperidine-2,6-dione]: the remaining activity at 1 µM was 37% and the remaining activity at 10 µM came out at 37.3%.

As to `Cc1c(C(=O)N2CCC(n3cc(-c4ccc5c(c4)CN(C4CCC(=O)NC4=O)C5=O)nn3)CC2)[nH]c2cc(Cl)ccc12` (stereo not shown) [Compound 66, 3-(5-(1-(1-(6-chloro-3-methyl-1H-indole-2-carbonyl)piperidin-4-yl)-1H-1,2,3-triazol-4-yl)-1-oxoinsoindolin-2-yl)piperidine-2,6-dione], the remaining activity at 10 µM turned out to be 87.8%.

Turning to `Cc1c(C(=O)N2CCC(c3ccc4c(c3)CN(C3CCC(=O)NC3=O)C4=O)CC2)[nH]c2ccc(Cl)cc12` (stereo not shown) [Compound 38, 3-(5-(1-(5-chloro-3-methyl-1H-indole-2-carbonyl)piperidin-4-yl)-1-oxoinsoindolin-2-yl)piperidine-2,6-dione], the remaining activity at 1 µM is 80% and the remaining activity at 10 µM came to 65.1%.

In the case of `O=C1CCC(N2Cc3cc(C=C4CCN(C(=O)c5c[nH]c6ccccc56)CC4)ccc3C2=O)C(=O)N1` (stereo not shown) [Compound 25, 3-(5-((1-(1H-indole-3-carbonyl)piperidin-4-ylidene)methyl)-1-oxoinsoindolin-2-yl)piperidine-2,6-dione], the remaining activity at 1 µM was 93.6% and the remaining activity at 10 µM came to 87.5%.

For `Cc1c(C(=O)N2CCC(=Cc3ccc4c(c3)CN(C3CCC(=O)NC3=O)C4=O)CC2)[nH]c2ccccc12` (stereo not shown) [Compound 27, 3-(5-((1-(3-methyl-1H-indole-2-carbonyl)piperidin-4-ylidene)methyl)-1-oxoinsoindolin-2-yl)piperidine-2,6-dione], the remaining activity at 1 µM came to 96.4% and the remaining activity at 10 µM was 91.7%.

As for `COc1cccc2[nH]c(C(=O)N3CCC(c4ccc5c(c4)CN(C4CCC(=O)NC4=O)C5=O)CC3)cc12` (stereo not shown) [Compound 11, 3-(5-(1-(4-methoxy-1H-indole-2-carbonyl)piperidin-4-yl)-1-oxoinsoindolin-2-yl)piperidine-2,6-dione], the remaining activity at 1 µM was 99.5% and the remaining activity at 10 µM was 98%.

On to `Cc1c(C(=O)N2CCC(c3ccc4c(c3)CN(C3CCC(=O)NC3=O)C4=O)CC2)[nH]c2cc(Cl)c(CN3CCNCC3)cc12` (stereo not shown) [Compound 109, 3-(5-(1-(6-chloro-3-methyl-5-(piperazin-1-ylmethyl)-1H-indole-2-carbonyl)piperidin-4-yl)-1-oxoinsoindolin-2-yl)piperidine-2,6-dione dichloride], for which the remaining activity at 1 µM turned out to be 38.4% and the remaining activity at 10 µM was 24.6%.

`COc1ccc2c(C)c(C(=O)N3CCC(c4ccc5c(c4)CN(C4CCC(=O)NC4=O)C5=O)CC3)[nH]c2c1` (stereo not shown) [Compound 42, 3-(5-(1-(6-methoxy-3-methyl-1H-indole-2-carbonyl)piperidin-4-yl)-1-oxoinsoindolin-2-yl)piperidine-2,6-dione]: the remaining activity at 1 µM is 13.9% and the remaining activity at 10 µM was found to be 13%.

Consider `O=C1CCC(N2Cc3cc(C#CCC4CCN(C(=O)c5c[nH]c6ccccc56)CC4)ccc3C2=O)C(=O)N1` (stereo not shown) [Compound 23, 3-(5-(3-(1-(1H-indole-3-carbonyl)piperidin-4-yl)prop-1-yn-1-yl)-1-oxoinsoindolin-2-yl)piperidine-2,6-dione], for which the remaining activity at 1 µM is 101% and the remaining activity at 10 µM amounted to 99.6%.

For the molecule `O=C1CCC(N2Cc3cc(C4CCN(C(=O)c5cc6ccc(Cl)c(Cl)c6[nH]5)CC4)ccc3C2=O)C(=O)N1` (stereo not shown) [Compound 2, 3-(5-(1-(6,7-dichloro-1H-indole-2-carbonyl)piperidin-4-yl)-1-oxoinsoindolin-2-yl)piperidine-2,6-dione], the remaining activity at 1 µM came out at 78.3% and the remaining activity at 10 µM came out at 92.1%.

For `COc1cc2cc(C(=O)N3CCC(c4ccc5c(c4)CN(C4CCC(=O)NC4=O)C5=O)CC3)[nH]c2cc1OC` (stereo not shown) [Compound 40, 3-(5-(1-(5,6-dimethoxy-1H-indole-2-carbonyl)piperidin-4-yl)-1-oxoinsoindolin-2-yl)piperidine-2,6-dione], the remaining activity at 1 µM turned out to be 92.2% and the remaining activity at 10 µM was found to be 74.5%.

As to `O=C1CCC(N2Cc3cc(C4CCN(C(=O)c5nc6ccc(Cl)cc6[nH]5)CC4)ccc3C2=O)C(=O)N1` (stereo not shown) [Comparative Substance 3, 3-(5-(1-(6-chloro-1H-benzo[d]imidazole-2-carbonyl)piperidin-4-yl)-1-oxoinsoindolin-2-yl)piperidine-2,6-dione, reference compound], the remaining activity at 10 µM came to 100%. Also, the “IKZF2 degradation activity (in words, comment on Table 1)” value (as shown in Table 1) was “no IKZF2 degradation activity was observed”.

Take `N#Cc1c(C(=O)N2CCC(c3ccc4c(c3)CN(C3CCC(=O)NC3=O)C4=O)CC2)[nH]c2ccccc12` (stereo not shown) [Compound 51, 2-(4-(2-(2,6-dioxopiperidin-3-yl)-1-oxoindolin-5-yl)piperidine-1-carbonyl)-1H-indole-3-carbonitrile]: the remaining activity at 10 µM was found to be 76.6%.

In the case of `COc1cccc2cc(C(=O)N3CCC(c4ccc5c(c4)CN(C4CCC(=O)NC4=O)C5=O)CC3)[nH]c12` (stereo not shown) [Compound 12, 3-(5-(1-(7-methoxy-1H-indole-2-carbonyl)piperidin-4-yl)-1-oxoinsoindolin-2-yl)piperidine-2,6-dione], the remaining activity at 1 µM turned out to be 89.9% and the remaining activity at 10 µM worked out at 94.1%.

As to `Cc1c(C(=O)N2CCC(=Cc3ccc4c(c3)CN(C3CCC(=O)NC3=O)C4=O)CC2)[nH]c2cc(Cl)ccc12` (stereo not shown) [Compound 44, 3-(5-((1-(6-chloro-3-methyl-1H-indole-2-carbonyl)piperidin-4-ylidene)methyl)-1-oxoinsoindolin-2-yl)piperidine-2,6-dione], the remaining activity at 1 µM came to 69.7% and the remaining activity at 10 µM was 61.1%.

`Cc1c(C(=O)N2CCC(c3ccc4c(c3)CN(C3CCC(=O)NC3=O)C4=O)CC2)[nH]c2cc(Cl)c(Br)cc12` (stereo not shown) [Compound 83, 3-(5-(1-(5-bromo-6-chloro-3-methyl-1H-indole-2-carbonyl)piperidin-4-yl)-1-oxoinsoindolin-2-yl)piperidine-2,6-dione]: the remaining activity at 10 µM stood at 49%.

In the case of `O=C1CCC(N2Cc3cc(C4CCN(C(=O)c5[nH]c6ccccc6c5F)CC4)ccc3C2=O)C(=O)N1` (stereo not shown) [Compound 37, 3-(5-(1-(3-fluoro-1H-indole-2-carbonyl)piperidin-4-yl)-1-oxoinsoindolin-2-yl)piperidine-2,6-dione], the remaining activity at 1 µM was found to be 99.6% and the remaining activity at 10 µM came to 77.5%.

`Cc1ccc2cc(C(=O)N3CCC(c4ccc5c(c4)CN(C4CCC(=O)NC4=O)C5=O)CC3)[nH]c2c1` (stereo not shown) [Compound 15, 3-(5-(1-(6-methyl-1H-indole-2-carbonyl)piperidin-4-yl)-1-oxoinsoindolin-2-yl)piperidine-2,6-dione]: the remaining activity at 1 µM was determined as 66.9% and the remaining activity at 10 µM is 73%.

With `O=C1CCC(N2Cc3cc(C4CCN(C(=O)c5cc6cc(Cl)ccc6[nH]5)CC4)ccc3C2=O)C(=O)N1` (stereo not shown) [Compound 3, 3-(5-(1-(5-chloro-1H-indole-2-carbonyl)piperidin-4-yl)-1-oxoinsoindolin-2-yl)piperidine-2,6-dione], the remaining activity at 1 µM was 102% and the remaining activity at 10 µM turned out to be 106%.

Consider `CC(=O)Nc1ccc2c(C)c(C(=O)N3CCC(c4ccc5c(c4)CN(C4CCC(=O)NC4=O)C5=O)CC3)[nH]c2c1` (stereo not shown) [Compound 73, N-(2-(4-(2-(2,6-dioxopiperidin-3-yl)-1-oxoindolin-5-yl)piperidine-1-carbonyl)-3-methyl-1H-indol-6-yl)acetamide], for which the remaining activity at 1 µM worked out at 59.2% and the remaining activity at 10 µM was 27.8%.

`O=C1CCC(N2Cc3cc(C4CCN(C(=O)c5[nH]c6cc(Cl)ccc6c5CO)CC4)ccc3C2=O)C(=O)N1` (stereo not shown) [Compound 105, 3-(5-(1-(6-chloro-3-(hydroxymethyl)-1H-indole-2-carbonyl)piperidin-4-yl)-1-oxoinsoindolin-2-yl)piperidine-2,6-dione]: the remaining activity at 1 µM stood at 15.2% and the remaining activity at 10 µM amounted to 8.5%.

With `O=C1CCC(N2Cc3cc(C4CCN(C(=O)c5[nH]c6ccccc6c5Cl)CC4)ccc3C2=O)C(=O)N1` (stereo not shown) [Compound 22, 3-(5-(1-(3-chloro-1H-indole-2-carbonyl)piperidin-4-yl)-1-oxoinsoindolin-2-yl)piperidine-2,6-dione], the remaining activity at 1 µM worked out at 64.5% and the remaining activity at 10 µM worked out at 67%.

Turning to `Cc1c(C(=O)N2CCC(c3ccc4c(c3)C(=O)N(C3CCC(=O)NC3=O)C4=O)CC2)[nH]c2cc(Cl)ccc12` (stereo not shown) [Compound 92, 5-(1-(6-chloro-3-methyl-1H-indole-2-carbonyl)piperidin-4-yl)-2-(2,6-dioxopiperidin-3-yl)isoindoline-1,3-dione], the remaining activity at 10 µM came out at 36.1%.

(Values after patent US20260216164A1, “INDOLE COMPOUND DECOMPOSING IKZF2, AND USE THEREOF” (KOREA RESEARCH INSTITUTE OF CHEMICAL TECHNOLOGY, priority 2023, published 2026).)
